Measurements reported in ChEMBL document CHEMBL4402531, “Recent advances in α,β-unsaturated carbonyl compounds as mitochondrial toxins” (Eur J Med Chem, 2019).

Tests used:
HL-60 = experiment: Cytotoxicity against human HL60 cells assessed as reduction in cell viability; type: functional, cell-based
PC-3 [1] = experiment: Cytotoxicity against human PC3 cells assessed as reduction in cell viability; type: functional, cell-based
MGC-803 = experiment: Cytotoxicity against human MGC803 cells assessed as reduction in cell viability after 24 hrs by MTT assay; type: functional, cell-based; conditions: MGC-803, 24 h
HGC-27 = experiment: Cytotoxicity against human HGC27 cells assessed as reduction in cell viability after 24 hrs by MTT assay; type: functional, cell-based; conditions: HGC-27, 24 h
SGC-7901 = experiment: Cytotoxicity against human SGC7901 cells assessed as reduction in cell viability after 24 hrs by MTT assay; type: functional, cell-based; conditions: SGC-7901, 24 h
LNCaP = experiment: Cytotoxicity against human LNCAP cells assessed as reduction in cell viability relative to control; type: functional
LNCaP C4-2 = experiment: Cytotoxicity against human C4-2 cells assessed as reduction in cell viability relative to control; type: functional
PC-3 [2] = experiment: Cytotoxicity against human PC3 cells assessed as reduction in cell viability relative to control; type: functional
DU-145 = experiment: Cytotoxicity against human DU145 cells assessed as reduction in cell viability relative to control; type: functional
MCF7 [3] = experiment: Cytotoxicity against human MCF7 cells assessed as reduction in cell viability at 0.01 uM after 48 hrs by fluorescence assay relative to control; type: functional
MCF7 [4] = experiment: Cytotoxicity against human MCF7 cells assessed as reduction in cell viability at 5 uM after 48 hrs by fluorescence assay relative to control; type: functional
[5] = biological target: RAF proto-oncogene serine/threonine-protein kinase (Homo sapiens) (UniProt P04049); experiment: Inhibition of c-RAF (unknown origin) phosphorylation relative to control; conditions: concentration not given here
Sequence of RAF proto-oncogene serine/threonine-protein kinase (Homo sapiens) (P04049 whole entry): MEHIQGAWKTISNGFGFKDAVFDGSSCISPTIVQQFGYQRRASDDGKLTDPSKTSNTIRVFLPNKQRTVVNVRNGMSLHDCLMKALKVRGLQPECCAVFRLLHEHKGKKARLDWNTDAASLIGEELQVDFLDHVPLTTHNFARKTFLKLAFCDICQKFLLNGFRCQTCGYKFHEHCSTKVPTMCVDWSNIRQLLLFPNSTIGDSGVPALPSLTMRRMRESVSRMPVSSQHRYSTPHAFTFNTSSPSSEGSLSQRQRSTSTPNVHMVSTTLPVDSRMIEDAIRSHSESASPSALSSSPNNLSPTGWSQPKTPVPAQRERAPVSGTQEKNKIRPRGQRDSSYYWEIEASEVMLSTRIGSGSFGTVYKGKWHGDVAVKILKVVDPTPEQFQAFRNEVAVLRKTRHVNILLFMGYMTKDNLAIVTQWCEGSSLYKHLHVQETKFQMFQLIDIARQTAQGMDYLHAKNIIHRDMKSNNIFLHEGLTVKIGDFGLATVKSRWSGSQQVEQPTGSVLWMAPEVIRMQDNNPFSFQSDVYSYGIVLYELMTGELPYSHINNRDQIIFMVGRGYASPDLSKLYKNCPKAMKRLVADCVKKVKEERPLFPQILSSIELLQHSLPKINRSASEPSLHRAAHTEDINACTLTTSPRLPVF

[6] = biological target: Dual specificity mitogen-activated protein kinase kinase; MEK1/2 (Homo sapiens) (UniProt P36507+Q02750); experiment: Inhibition of MEK (unknown origin) phosphorylation relative to control; type: protein assay; conditions: concentration not given here
Sequence of Dual specificity mitogen-activated protein kinase kinase; MEK1/2 (Homo sapiens) (P36507 whole entry, looked up): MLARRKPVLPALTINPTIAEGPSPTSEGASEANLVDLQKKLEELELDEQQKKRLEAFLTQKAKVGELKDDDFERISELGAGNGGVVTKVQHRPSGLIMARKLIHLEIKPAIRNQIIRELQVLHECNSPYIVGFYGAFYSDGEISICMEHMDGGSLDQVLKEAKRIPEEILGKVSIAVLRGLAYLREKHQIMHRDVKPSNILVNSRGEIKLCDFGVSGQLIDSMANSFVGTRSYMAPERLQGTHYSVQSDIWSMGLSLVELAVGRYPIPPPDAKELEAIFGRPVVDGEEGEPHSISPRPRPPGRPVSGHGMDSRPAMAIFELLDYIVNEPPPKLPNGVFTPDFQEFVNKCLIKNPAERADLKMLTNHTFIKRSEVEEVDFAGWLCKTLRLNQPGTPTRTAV
Sequence of Dual specificity mitogen-activated protein kinase kinase; MEK1/2 (Homo sapiens) (Q02750 whole entry, looked up): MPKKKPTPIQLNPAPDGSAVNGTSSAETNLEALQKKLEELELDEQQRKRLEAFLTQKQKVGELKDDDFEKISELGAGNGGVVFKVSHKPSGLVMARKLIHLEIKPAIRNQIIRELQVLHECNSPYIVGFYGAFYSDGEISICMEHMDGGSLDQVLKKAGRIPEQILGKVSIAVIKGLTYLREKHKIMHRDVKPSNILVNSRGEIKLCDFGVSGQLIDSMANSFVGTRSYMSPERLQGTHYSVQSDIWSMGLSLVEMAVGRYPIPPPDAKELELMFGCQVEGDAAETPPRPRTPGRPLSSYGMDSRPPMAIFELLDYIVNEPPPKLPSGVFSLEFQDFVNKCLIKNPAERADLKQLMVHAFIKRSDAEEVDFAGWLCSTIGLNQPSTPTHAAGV

Homo sapiens = organism: Homo sapiens; experiment: Inhibition of ERK (unknown origin) phosphorylation relative to control; conditions: concentration not given here
Ca-Ski = experiment: Cytotoxicity against human CaSki cells assessed as reduction in cell viability after 72 hrs; type: functional, cell-based
SiHa [7] = experiment: Cytotoxicity against human SiHa cells assessed as reduction in cell viability after 72 hrs; type: functional, cell-based
HeLa [8] = experiment: Cytotoxicity against human HeLa cells assessed as reduction in cell viability after 72 hrs; type: functional, cell-based
C-33-A = experiment: Cytotoxicity against human C33A cells assessed as reduction in cell viability after 72 hrs; type: functional, cell-based
PC-12 = experiment: Cytotoxicity against rat PC12 cells assessed as reduction in cell viability after 48 hrs by MTT assay; type: functional, cell-based; conditions: PC-12, 48 h
L02 = experiment: Cytotoxicity against human LO2 cells assessed as reduction in cell viability after 48 hrs by MTT assay; type: functional, cell-based; conditions: L02, 48 h
SiHa [9] = experiment: Cytotoxicity against human SiHa cells assessed as reduction in cell viability after 72 hrs by MTT assay; type: functional, cell-based
HeLa [10] = experiment: Cytotoxicity against human HeLa cells assessed as reduction in cell viability after 72 hrs by MTT assay; type: functional, cell-based
CNE = experiment: Cytotoxicity against human CNE1 cells assessed as reduction in cell viability after 48 hrs; type: functional, cell-based
CNE-2 = experiment: Cytotoxicity against human CNE2 cells assessed as reduction in cell viability after 48 hrs; type: functional, cell-based; conditions: CNE-2, 48 h
HepG2 = experiment: Growth inhibition of human HepG2 cells; type: functional, cell-based
K562 [11] = experiment: Cell cycle arrest in human K562 cells assessed as accumulation at G0 phase; type: functional, cell-based
K562 [12] = experiment: Cell cycle arrest in human K562 cells assessed as accumulation at G1 phase; type: functional, cell-based
K562 [13] = experiment: Induction of apoptosis in human K562 cells; type: functional, cell-based
MG-63 = experiment: Cytotoxicity against human MG63 cells assessed as reduction in cell viability after 48 hrs; type: functional, cell-based; conditions: MG-63, 48 h
U2OS = experiment: Cytotoxicity against human U2OS cells assessed as reduction in cell viability after 48 hrs; type: functional, cell-based
SiHa [14] = experiment: Cytotoxicity against human SiHa cells assessed as reduction in cell viability after 24 hrs by MTT assay; type: functional, cell-based
HeLa [15] = experiment: Cytotoxicity against human HeLa cells assessed as reduction in cell viability after 24 hrs by MTT assay; type: functional, cell-based
HK-2 = experiment: Cytotoxicity against human HK2 cells assessed as reduction in cell viability after 24 to 48 hrs by MTT assay; type: cell-based
WI-38 = experiment: Cytotoxicity against human WI38 cells assessed as reduction in cell viability after 24 to 48 hrs by MTT assay; type: cell-based
MCF7 [16] = experiment: Cytotoxicity against human MCF7 cells assessed as reduction in cell viability after 24 to 48 hrs by MTS assay; type: functional, cell-based
MDA-MB-231 = experiment: Cytotoxicity against human MDA-MB-231 cells assessed as reduction in cell viability after 24 to 48 hrs by MTS assay; type: functional, cell-based
MSTO-211H = experiment: Cytotoxicity against human MSTO-211H cells assessed as reduction in cell viability after 24 to 48 hrs by MTS assay; type: functional, cell-based
NCI-H28 = experiment: Cytotoxicity against human NCI-H28 cells assessed as reduction in cell viability after 24 to 48 hrs by MTS assay; type: functional, cell-based
HCT-116 = experiment: Cytotoxicity against human HCT116 cells assessed as reduction in cell viability after 72 hrs by MTT assay; type: functional, cell-based; conditions: HCT-116, 72 h
MCF7 [17] = experiment: Cytotoxicity against human MCF7 cells assessed as reduction in cell viability; type: functional, cell-based
HeLa [18] = experiment: Cytotoxicity against human HeLa cells assessed as reduction in cell viability; type: functional, cell-based

Question: Which IC50 (HL-60) does the source give for `CCn1cc(C(=O)O)c(=O)c2c3c(ccc21)NC(=O)/C3=C1/C(=O)Nc2ccc(Cl)cc21` here?
Answer: Its IC50 is 4.27 µM.

Question: With `CCCOc1ccc(C(=O)/C=C/c2ccccc2)c(O)c1` as the compound, how does the IC50 (PC-3 [1]) read?
Answer: The IC50 was 8.08 to 13.8 µM.

Question: For `O=C(/C=C/c1ccccc1)c1ccc(O)cc1O` [2',4'-DIHYDROXYCHALCONE], which IC50 (PC-3 [1]) is on record?
Answer: The IC50 was 8.08 to 13.8 µM.

Question: Which IC50 (MGC-803) does the source give for `COc1ccc(Br)cc1C(=O)/C=C/c1ccc(S(C)(=O)=O)cc1` here?
Answer: Its IC50 is 3.57 to 5.61 µM.

Question: What about the IC50 (HGC-27) of the same compound?
Answer: Its IC50 is 3.57 to 5.61 µM.

Question: And the IC50 (SGC-7901)?
Answer: The IC50 was 3.57 to 5.61 µM.

Question: Which Activity (LNCaP) does the source give for `COc1cc(O)c(CC=C(C)C)c(O)c1C(=O)/C=C/c1ccc(O)cc1` [XANTHOHUMOL] here?
Answer: Its Activity is 41%.

Question: What about the Activity (LNCaP C4-2) of the same compound?
Answer: Its Activity is 30%.

Question: What about the Activity (PC-3 [2]) of the same compound?
Answer: The Activity was 42%.

Question: What about the Activity (DU-145) of the same compound?
Answer: The Activity was 38%.

Question: What about the Activity (MCF7 [3]) of the same compound?
Answer: Its Activity is 39.6%.

Question: What about the Activity (MCF7 [4]) of the same compound?
Answer: The Activity was -57.3%.

Question: `O=C(/C=C/c1ccc(O)cc1)/C(C(=O)Nc1ccccc1)=C(O)/C=C/c1ccc(O)cc1` was tested. Which inhibition [5] did it give?
Answer: Its inhibition is 93%.

Question: What about the inhibition [6] of the same compound?
Answer: Its inhibition is 91%.

Question: And the inhibition (Homo sapiens)?
Answer: The inhibition was 87%.

Question: With `COc1ccc(C(=O)/C=C/c2ccccc2)c(O)c1` as the compound, how does the IC50 (PC-3 [1]) read?
Answer: The IC50 was 8.08 to 13.8 µM.

Question: How did the IC50 (PC-3 [1]) turn out when `CC(=O)Oc1ccc(C(=O)/C=C/c2ccccc2)c(O)c1` was run?
Answer: Its IC50 is 8.08 to 13.8 µM.

Question: For `O=C(/C=C/c1ccc(O)cc1)c1ccc(O)cc1O` [ISOLIQUIRITIGENIN], which IC50 (Ca-Ski) is on record?
Answer: The IC50 was 39.1 µM.

Question: What about the IC50 (SiHa [7]) of the same compound?
Answer: The IC50 was 53.8 µM.

Question: What about the IC50 (HeLa [8]) of the same compound?
Answer: The IC50 was 58.1 µM.

Question: And the IC50 (C-33-A)?
Answer: The IC50 was 32.8 µM.

Question: What about the IC50 (PC-12) of the same compound?
Answer: The IC50 was 17.8 µM.

Question: What about the IC50 (L02) of the same compound?
Answer: The IC50 was > 1000 µM.

Question: What about the IC50 (SiHa [9]) of the same compound?
Answer: The IC50 was 53.8 µM.

Question: What about the IC50 (HeLa [10]) of the same compound?
Answer: The IC50 was 58.1 µM.

Question: Which results are given for `C=C1C(=O)[C@]23[C@H](O)[C@@H]1CC[C@H]2[C@]12CCCC(C)(C)[C@H]1[C@H](O)[C@@]3(O)OC2`?
Answer: IC50 (CNE): 1.26 µM; IC50 (CNE-2): 1.52 µM

Question: How did the IC50 (HepG2) turn out when `CCCCC/C=C/C(=O)CCc1ccc(O)c(OC)c1` [SHOGAOL] was run?
Answer: Its IC50 is 88 µM.

Question: How did the IC50 (K562 [11]) turn out when `COc1cc(/C=C/C(=O)C(=Cc2ccncc2)C(=O)/C=C/c2ccc(O)c(OC)c2)ccc1O` was run?
Answer: Its IC50 is 0.6 µM.

Question: And the IC50 (K562 [12])?
Answer: Its IC50 is 0.4 to 3.2 µM.

Question: What about the IC50 (K562 [13]) of the same compound?
Answer: Its IC50 is 0.4 to 3.2 µM.

Question: How did the IC50 (PC-3 [1]) turn out when `CCOc1ccc(C(=O)/C=C/c2ccccc2)c(O)c1` was run?
Answer: The IC50 was 8.08 to 13.8 µM.

Question: What does the source list for `O=C(/C=C(\O)c1ccccc1)c1ccccc1O` [2',beta-DIHYDROXYCHALCONE]?
Answer: IC50 (MG-63): 23.8 µM; IC50 (U2OS): 19.6 µM

Question: `C=CC(C)(C)c1cc(/C=C/C(=O)c2ccc(O)cc2)c(OC)cc1O` [LICOAGROCHACONE A] was tested. Which IC50 (SiHa [14]) did it give?
Answer: Its IC50 is 42.2 µM.

Question: What about the IC50 (HeLa [15]) of the same compound?
Answer: The IC50 was 48.5 µM.

Question: And the IC50 (HK-2)?
Answer: Its IC50 is 88.7 µM.

Question: What about the IC50 (WI-38) of the same compound?
Answer: Its IC50 is 90.2 µM.

Question: What about the IC50 (MCF7 [16]) of the same compound?
Answer: Its IC50 is 22 µM.

Question: And the IC50 (MDA-MB-231)?
Answer: The IC50 was 22 µM.

Question: And the IC50 (MSTO-211H)?
Answer: Its IC50 is 26 µM.

Question: What about the IC50 (NCI-H28) of the same compound?
Answer: The IC50 was 30 µM.

Question: For `COc1cccc(OC)c1C(=O)/C=C/c1c2ccccc2nc2ccccc12`, which IC50 (HCT-116) is on record?
Answer: The IC50 was 4.2 µM.

Question: How did the IC50 (MCF7 [17]) turn out when `COc1cc(O)c(C(=O)/C=C/c2ccccc2)c2c1C=CC(C)(CCC=C(C)C)O2` (stereo not given) [BOESENBERGIN A] was run?
Answer: Its IC50 is 20 µM.

Question: And the IC50 (HeLa [18])?
Answer: The IC50 was 20 µM.
